Where a name gives a salt, the structure may show the parent alone.
Legend:
Palmer amaranth = experiment: Field experiment, Palmer amaranth control with glufosinate + additive at 10 pm (Example 5, FIG. 11); format: in vivo, Amaranthus palmeri
[1] = tested on: Enlist cotton, XtendFlex cotton, LibertyLink GT27 soybean, and LibertyLink corn; details: in vivo
johnsongrass = experiment: Field experiment, johnsongrass control with glufosinate + additive at 10 pm (Example 5, FIG. 12); format: in vivo
[2] = tested on: native mixture of Palmer amaranth and waterhemp; design: species or system Amaranthus palmeri, Amaranthus tuberculatus; details: in vivo
[3] = tested on: Enlist cotton, XtendFlex cotton, LibertyLink GT27 soybean, and LibertyLink corn; details: in vivo; remark: listed apart in the source
[4] = tested on: native large crabgrass populations; experiment: Field experiment, large crabgrass control (Examples 2 and 3, FIG. 6); format: in vivo; details: added to glufosinate 655 g ai/ha; saflufenacil 1 g ai/ha, acifluorfen 14 g ai/ha; 10 pm

`CCOP(=S)(OCC)Oc1nc(Cl)c(Cl)cc1Cl` [Chlorpyrifos, O,O-Diethyl O-3,5,6-trichloropyridin-2-yl phosphorothioate] was tested, and the “increase in glufosinate efficacy of Palmer amaranth” value (Palmer amaranth; in vivo) was “greatest increase”, the crop response [1] was “not eliciting a negative crop response” and the “increase in glufosinate efficacy of johnsongrass” value (johnsongrass; in vivo) was “greatest increase”.
For `O=C(O)c1cc(Oc2ccc(C(F)(F)F)cc2Cl)ccc1[N+](=O)[O-]` [acifluorfen], the “effect of the additive on reductions in weed control due to low-light intensity” value (from here on “effect of the additive on reductions”) [2] was “did not alleviate reductions in weed control”, the “crop impact of glufosinate and the additive applied during the day” value [3] was “negatively impacted at least one of the crops” and the “crop injury when applied at 10 pm versus 10 am” value [3] was “less”. The “effect of the additive on reductions” value [4] was “did not alleviate reductions in weed control”.
In the case of `CCOC(=O)/C=C\C(=O)OCC` [diethyl maleate], the “increase in glufosinate efficacy of Palmer amaranth” value (Palmer amaranth; low-light conditions (10 pm), glufosinate 655 g ai/ha + additive 280 g ai/ha, 25 to 30-cm tall Palmer amaranth) is reported as “greatest increase” and the “increase in glufosinate efficacy of johnsongrass” value (johnsongrass; low-light conditions (10 pm), glufosinate 655 g ai/ha + additive 280 g ai/ha, 15 to 20-cm tall johnsongrass) is reported as “greatest increase”.
For `CC(C)N(C)S(=O)(=O)NC(=O)c1cc(-n2c(=O)cc(C(F)(F)F)n(C)c2=O)c(F)cc1Cl` [saflufenacil, N′-{2-Chloro-4-fluoro-5-[1,2,3,6-tetrahydro-3-methyl-2,6-dioxo-4-(trifluoromethyl)pyrimidin-1-yl]benzoyl}-N-isopropyl-N-methylsulfamide], the “effect of the additive on reductions” value [2] was “did not alleviate reductions in weed control”, the “crop impact of glufosinate and the additive applied during the day” value [3] was “negatively impacted at least one of the crops” and the “crop injury when applied at 10 pm versus 10 am” value [3] was “less”. For the same compound, the “effect of the additive on reductions” value [4] was “did not alleviate reductions in weed control”.

— patent US12219958B2, “Glufosinate additive for improved weed control” (THE BOARD OF TRUSTEES OF THE UNIVERSITY OF ARKANSAS, priority 2019, dated 2025)
